As usually defined, the IC50 is the concentration that inhibits the measured activity by half.

The target of assay [1] is T1, Monoglyceride lipase (Homo sapiens, UniProt Q99685).
T1 sequence (Q99685 whole entry): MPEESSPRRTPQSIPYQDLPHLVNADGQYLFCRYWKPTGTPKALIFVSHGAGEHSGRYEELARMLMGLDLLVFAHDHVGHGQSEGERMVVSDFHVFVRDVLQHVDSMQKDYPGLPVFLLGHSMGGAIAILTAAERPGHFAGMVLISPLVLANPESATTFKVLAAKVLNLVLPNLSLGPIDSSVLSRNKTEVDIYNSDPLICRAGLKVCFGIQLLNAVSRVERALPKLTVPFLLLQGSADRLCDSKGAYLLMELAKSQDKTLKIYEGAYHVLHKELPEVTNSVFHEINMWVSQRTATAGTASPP
In words: Inhibition of Homo sapiens (human) recombinant monoacylglycerol lipase assessed as inhibition of [3H]-2-oleolylglycerol hydrolysis after 10 min by liquid scintillation counting.

Assay [2] deals with T2, Fatty-acid amide hydrolase 1 (Homo sapiens, UniProt O00519).
T2 sequence (O00519 whole entry): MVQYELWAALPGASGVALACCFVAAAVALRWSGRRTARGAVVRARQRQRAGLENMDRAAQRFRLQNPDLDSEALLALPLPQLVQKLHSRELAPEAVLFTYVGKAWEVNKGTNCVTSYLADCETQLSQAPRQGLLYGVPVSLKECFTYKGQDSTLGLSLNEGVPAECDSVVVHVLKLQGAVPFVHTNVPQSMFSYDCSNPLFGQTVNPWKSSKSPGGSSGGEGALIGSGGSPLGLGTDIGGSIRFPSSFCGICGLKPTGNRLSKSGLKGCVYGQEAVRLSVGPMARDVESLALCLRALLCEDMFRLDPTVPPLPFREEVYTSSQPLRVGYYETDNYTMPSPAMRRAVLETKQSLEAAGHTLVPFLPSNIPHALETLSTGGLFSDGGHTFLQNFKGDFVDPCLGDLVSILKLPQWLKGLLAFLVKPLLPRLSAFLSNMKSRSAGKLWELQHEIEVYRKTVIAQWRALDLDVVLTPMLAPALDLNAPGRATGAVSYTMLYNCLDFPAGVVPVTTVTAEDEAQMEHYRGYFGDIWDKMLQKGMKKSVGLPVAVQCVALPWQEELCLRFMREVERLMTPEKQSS
In words: Inhibition of Homo sapiens (human) recombinant fatty acid amide hydrolase assessed as inhibition of [3H]-AEA hydrolysis after 10 min by liquid scintillation counting.

In the case of `S=C(Cc1ccccc1)N1CCOCC1`, the IC50 in assay [1] and in assay [2] was over 1000 µM in each case.
Regarding `COc1ccc(CC(=S)N2CCOCC2)cc1OC`, the IC50 in assay [1] and in assay [2] was over 1000 µM each time.
For the compound `Cc1ccc(CC(=S)N2CCOCC2)cc1`, the results for the IC50 in assay [1] and in assay [2] were 24 µM and 49 µM, respectively.
Taken in the same sequence, the figures for `COC(=O)c1ccc(C(=S)N2CCOCC2)cc1` were 30.9 µM and over 1000 µM.
Taken in the same sequence, the figures for `S=C(c1ccc(-c2ccccc2)cc1)N1CCOCC1` were 19.5 µM and 30.9 µM.
The corresponding values for `S=C(Cc1ccc(Cl)cc1)N1CCOCC1` are 14.8 µM and 77.6 µM.
Take `S=C(Cc1ccc(-c2ccccc2)cc1)N1CCOCC1`: the results for the IC50 in assay [1] and in assay [2] were 5.75 µM and 30.9 µM, respectively.
Taken in the same sequence, the figures for `Cc1cccc(C(=S)N2CCCCC2)c1` were over 1000 µM and 61.7 µM.
The corresponding values for `Oc1ccc(C(=S)NCCc2ccccc2)cc1O` are 525 µM and 724 µM.
As to `COC(=O)c1ccc(C(=S)NCCc2ccccc2)cc1`, the IC50 was 26.3 µM in assay [1] and over 1000 µM in assay [2].
For the compound `S=C(NCCc1ccccc1)c1ccc(Br)cc1`, the IC50 was 97.7 µM in assay [1] and over 1000 µM in assay [2].
The corresponding values for `S=C(NCCc1ccccc1)c1ccc(Cl)cc1` are 437 µM and 407 µM.
The corresponding values for `S=C(NCCc1ccccc1)c1ccccc1Cl` are 166 µM and over 1000 µM.
Taken in the same sequence, the figures for `S=C(NCCc1ccccc1)c1ccc(Cl)cc1Cl` were 79.4 µM and over 1000 µM.
For the compound `S=C(NCCc1ccccc1)c1ccc(Cl)c(Cl)c1`, the IC50 is 75.9 µM in assay [1] and 53.7 µM in assay [2].
The corresponding values for `Fc1ccc(C(=S)NCCc2ccccc2)cc1` are over 1000 µM and over 1000 µM.
The corresponding values for `S=C(Cc1ccc(-c2ccccc2)cc1)NCCc1ccccc1` are 537 µM and 724 µM.
For `O=C(c1ccc(-c2ccccc2)cc1)N1CCOCC1`, the IC50 in assay [1] and in assay [2] was over 1000 µM in each case.
Turning to `Clc1ccccc1CN1CCOCC1`, the IC50 in assay [1] and in assay [2] was over 1000 µM throughout.
In the case of `S=C(c1ccccc1Cl)N1CCOCC1`, the IC50 in assay [1] is 20 µM; in assay [2], over 1000 µM.
Take `S=C(c1ccc(C2CCCCC2)cc1)N1CCOCC1`: the IC50 in assay [1] and in assay [2] was over 1000 µM throughout.
On to `O=[N+]([O-])c1cccc(C(=S)N2CCOCC2)c1`, for which the IC50 was 9.55 µM in assay [1] and 245 µM in assay [2].
The corresponding values for `S=C(Cc1ccccc1Cl)N1CCOCC1` are 24.5 µM and over 1000 µM.
Taken in the same sequence, the figures for `S=C(c1ccccc1)N1CCCCC1` were over 1000 µM and over 1000 µM.
As to `Clc1ccc(CN2CCOCC2)cc1` [4-(4-CHLOROBENZYL)MORPHOLINE], the IC50 in assay [1] and in assay [2] was over 1000 µM each time.
Regarding `c1ccc(-c2ccc(CN3CCOCC3)cc2)cc1` [4-(BIPHENYL-4-YLMETHYL)MORPHOLINE], the IC50 in assay [1] and in assay [2] was over 1000 µM throughout.
Regarding `S=C(c1ccc(Cl)cc1Cl)N1CCOCC1` [(2,4-DICHLOROPHENYL)(MORPHOLINO)METHANETHIONE], the IC50 in assay [1] and in assay [2] was over 1000 µM each time.
Regarding `O=C(c1ccccc1Cl)N1CCOCC1` [(2-CHLOROPHENYL)(MORPHOLINO)METHANONE], the IC50 in assay [1] and in assay [2] was over 1000 µM each time.
Regarding `Oc1ccccc1C(=S)N1CCOCC1` [(2-HYDROXYPHENYL)(MORPHOLINO)METHANETHIONE], the values for the IC50 in assay [1] and in assay [2] were 60.3 µM and over 1000 µM, respectively.
Taken in the same sequence, the figures for `S=C(c1ccc(Cl)c(Cl)c1)N1CCOCC1` [(3,4-DICHLOROPHENYL)(MORPHOLINO)METHANETHIONE] were over 1000 µM and over 1000 µM.
Taken in the same sequence, the figures for `S=C(c1cccc(Cl)c1)N1CCOCC1` [(3-CHLOROPHENYL)(MORPHOLINO)METHANETHIONE] were over 1000 µM and over 1000 µM.
The corresponding values for `CN(C)c1ccc(C(=S)N2CCOCC2)cc1` [(4-(DIMETHYLAMINO)PHENYL)(MORPHOLINO)METHANETHIONE] are over 1000 µM and over 1000 µM.
As for `S=C(c1ccc(Br)cc1)N1CCOCC1` [(4-BROMOPHENYL)(MORPHOLINO)METHANETHIONE], the IC50 was 31.6 µM in assay [1] and over 1000 µM in assay [2].
Regarding `S=C(c1ccc(Cl)cc1)N1CCOCC1` [(4-CHLOROPHENYL)(MORPHOLINO)METHANETHIONE], the IC50 was 77.6 µM in assay [1] and 302 µM in assay [2].
The corresponding values for `O=C(c1ccc(Cl)cc1)N1CCOCC1` [(4-CHLOROPHENYL)(MORPHOLINO)METHANONE] are over 1000 µM and over 1000 µM.
Taken in the same sequence, the figures for `Oc1ccc(C(=S)N2CCOCC2)cc1` [(4-HYDROXYPHENYL)(MORPHOLINO)METHANETHIONE] were 204 µM and 562 µM.
Take `S=C(c1ccccc1)N1CCOCC1` [MORPHOLINO(PHENYL)METHANETHIONE]: the IC50 in assay [1] and in assay [2] was over 1000 µM throughout.
Take `S=C(NCCc1ccccc1)c1ccccc1` [N-PHENETHYLBENZOTHIOAMIDE]: the IC50 in assay [1] and in assay [2] was over 1000 µM each time.

Values taken from ChEMBL document CHEMBL3045859, “Search for monoglyceride lipase inhibitors: synthesis and screening of arylthioamides derivatives” (Med Chem Res, 2009).
